Laboratory results reported in PMC3105312 (Nature Communications, 2011).

Target: PspF1-275 (Escherichia coli, UniProt P37344)
Conditions: 10 μM protein, pH 8.0, on ice; labelled compound; comparative control

Chain of PspF1-275 (P37344 1-275): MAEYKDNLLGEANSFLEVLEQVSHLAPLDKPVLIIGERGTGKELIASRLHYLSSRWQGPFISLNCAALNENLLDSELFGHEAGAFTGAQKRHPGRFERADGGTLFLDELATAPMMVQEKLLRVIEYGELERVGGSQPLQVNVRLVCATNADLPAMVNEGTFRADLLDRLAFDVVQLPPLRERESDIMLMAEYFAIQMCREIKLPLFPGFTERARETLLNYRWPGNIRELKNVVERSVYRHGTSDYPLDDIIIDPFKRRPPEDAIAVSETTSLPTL

In the case of Nc1ncnc2c1ncn2[C@@H]1O[C@H](COP(=O)(O)OP(=O)(O)OP(=O)(O)O)[C@@H](O)[C@H]1O [ATP], the “ultraviolet crosslinking of [α-32P]ATP, SDS-PAGE, phosphorimaging” value is reported as “at a level comparable to that of the structurally and functionally characterized EBP PspF”.
